Experiments:
[1] = system: DMBA-induced tumors of the rat mammary gland; assay: DMBA-induced breast tumors: tumor number and tumor type at necropsy; assay type: in vivo; settings: 10 mg/kg s.c. daily, 28 days
Description: (§1) To induce breast tumors, Sprague-Dawley female rats were given 10 mg/kg body weight of DMBA at 50 days of age. One group of 14 rats (Group 2) received sesame oil at 50 days of age instead of DMBA to serve as the no-DMBA controls. Animals were weighed and palpated weekly along the milk line for any sign of lesions or swellings. Tumor nodules were noted and measured weekly in two dimensions with calipers. When tumors grew to a size of 10-12 mm in any dimension, the individual animal was randomized into one of 14 groups. Tumors appeared as soon as 39 days after oral gavage and as late as 194 days (latter individual not included in study). The mean latency period for tumor appearance was 106±30 days.
(§2) Animals were treated for 28 days on the following schedule. Group 1 received daily subcutaneous (s.c.) injections of vehicle (10% ethanol in sesame oil). Group 2 (no DMBA control group-no tumors expected) received vehicle on a schedule decided beforehand to simulate initiation of treatment over a three-month time period. […] Groups 5 through 9 received 20 mg/kg, 10 mg/kg, 2 mg/kg, 1 mg/kg and 0.1 mg/kg of CDB-4124, respectively. Groups 10 through 14 mirrored the treatment given 5 through 9 except that 10 mg/kg of micronized progesterone was also added as a component to compositions for injections.
(§3) Animals were sacrificed 3-5 days after the end of the 28-day treatment period, blood was drawn, and tumors were removed, weighed, measured, inspected, and portions frozen and/or placed in 10% phosphate buffered formalin for histopathology. The tissue samples were cut and stained with hematoxylin and eosin and were evaluated for histopathological classification.
Histologically, four types of tumors were identified (Table 2): adenocarcinomas (ACAs), papillary carcinomas (PCAs), a fibrosarcoma, and fibroadenomas or adenofibromas (FA or AF), the latter two tumor types were not considered to represent frank malignancies.

[2] = system: DMBA-induced tumors of the rat mammary gland; assay: DMBA-induced breast tumors: tumor progression (growth pattern); assay type: in vivo; settings: 10 mg/kg
Description: as §1, §2
In order to evaluate the effects of CDB-4124, RU486 and progesterone on tumor development and progression, growth kinetics and tumor size were monitored during the treatment period. Individual tumors from animals with tumors in the study were measured weekly in two dimensions with calipers. The data is corrected to exclude the non-malignant FA/AF tumor types. Tumors that increased in cross-sectional area by at least 33% over the 28-day inspection period were considered to be growing (FIG. 1, black boxes). Those that decreased by approximately 33% were considered to be regressing (FIG. 1, white boxes). Others were considered to be static (FIG. 1, gray boxes).

[3] = system: DMBA-induced tumors of the rat mammary gland; assay: DMBA-induced breast tumors: tumor number, size and tumor burden at necropsy; assay type: in vivo; settings: 10 mg/kg s.c. daily, 28 days
Description: as §1, §2, §3
The results in Table 3 are those for ACA, PCA and mixed ACA/PCA, but the FA or AF tumors are excluded.

[4] = system: rat tumors (proliferation marker Ki-67); assay: Tumor proliferation by Ki-67 immunohistochemistry; assay type: in vivo; settings: 10 mg/kg
Excerpt: In order to assess the effects of progestins and anti-progestins on cell proliferation, tissue sections derived from 46 individual rat tumors from treated an control animals were examined by measuring expression of the proliferation marker Ki-67 using the Ki-67 antibody (NeoMarkers, Fremont, Calif.) and immunohistochemistry. Despite the reduction in size of many tumors in Groups 3 and 6 following treatment in Groups 3 and 6 making them too small to be re-cut, 7-12 ACAs from Groups 1, 3, 4, 6 and 11 were re-cut. The results of proliferation experiments, in which proliferation was measured as a percentage of cells expressing Ki-67, are summarized in Table 4: […]

rat tumors = assay: Apoptosis in tumors; assay type: in vivo; settings: 10 mg/kg
Description: Apoptosis was evaluated in the same tumors by an apoptosis hybridization kit (Oncor, Gaithersburg, Md.). The cells in apoptosis were evaluated in the peripheral areas of the tumors and far from necrosis. At least 1,000 cells per tumor section were evaluated.

estrogen receptor (ER) = assay: Expression of estrogen receptor in tumors (IHC); assay type: in vivo, rat; settings: 10 mg/kg
Description: (§4) The tumors that were evaluated for proliferation and apoptosis were also assessed for expression of estrogen and progesterone receptors by immunohistochemistry (IHC). The percentage of cells positive for ER and PR was determined and analyzed. Tumors were grouped into four different categories: tumors with 0% of cells expressing ER, tumors with 10% of cells expressing ER, tumors with 15 to 30% of cells expressing ER and tumors with 30-50% of cells expressing ER. In general, untreated tumors consistently expressed ER. Out of 12 tumors analyzed, all 12 expressed ER. Four out of these 12 tumors contained 30-50% ER-positive cells.

[5] = system: progesterone receptor (PR); assay: Expression of progesterone receptor in tumors (IHC); assay type: in vivo, rat; settings: 10 mg/kg
Description: as §4
Untreated tumors consistently expressed PR (12/12 tumors). In general, untreated tumors expressed both receptors, ER and PR, therefore it is possible that many malignant tumors are expressors of these two transcription factors. […] In general, long term treatment with CDB-4124 tends to drive down the level of PR in tumors, whereas progesterone tends to work in the opposite direction. Thus, tumors maintain progesterone responsiveness in the presence of progesterone.

[6] = Serum progesterone by ELISA; assay type: in vivo, rat
Description: (§5) The animals were assessed three times for their levels of progesterone: initially, when they were about to go on treatment; a second time after 21 days of treatment; and finally after treatment at sacrifice which was 2-4 days after the last s.c. injection. All blood samples were taken by heart puncture; serum was prepared and held frozen at −40° C. The levels of the steroid hormones progesterone, cortisol, and corticosterone were determined by ELISA.
(§6) The concentrations of steroid hormones were determined three times during the study: before the beginning of treatments, after 21 days of treatment and finally after treatment at sacrifice which was 2-4 days after the last s.c. injection. All samples were taken by heart puncture. Serum was obtained and held frozen at −40° C. The levels of steroid hormones were determined by ELISA.

[7] = Serum corticosterone by ELISA; assay type: in vivo, rat; settings: exogenous progesterone 10 mg/kg, after 21 days of treatment, paired groups
Description: as §5, §6
Corticosterone is the most abundant glucocorticoid in rats. The effects of the SPRMs on cortisol may be secondary to strong effects on corticosterone. […] The levels of corticosterone were 10-40 times higher than the levels of cortisol. However, almost no difference between groups with respect to mean corticosterone levels was observed. […] There was no statistical difference in levels of corticosterone between animals with tumors and without tumors at either 21-days (p=0.94, t-test, two-tailed) or at sacrifice (p=0.37, t-test, two-tailed).

**Q.** For `CC(=O)[C@H]1CC[C@H]2[C@@H]3CCC4=CC(=O)CC[C@]4(C)[C@H]3CC[C@]12C` [Progesterone, progesterone], which “ACA + PCA per rat” value [1] is on record?
**A.** 4.90

**Q.** And the ACA per rat [1]?
**A.** 3.3

**Q.** What about the FA/AF no. [1] of the same molecule?
**A.** 3

**Q.** And the “Incidence of tumors (%)” value [1]?
**A.** (100) %

**Q.** What about the “Incidence of tumors (rats with tumors/rats)” value [1] of the same molecule?
**A.** 10/10

**Q.** And the PCA per rat [1]?
**A.** 1.4

**Q.** And the “ACA + PCA per rat” value ([1]; listed as progesterone)?
**A.** ~5

**Q.** What about the “proportion of tumors regressing” value ([2]; decrease of cross-sectional area by about 33% over 28 days) of the same molecule?
**A.** 8%

**Q.** What about the “proportion of the growing tumors” value ([2]; increase of cross-sectional area by at least 33% over 28 days) of the same molecule?
**A.** 80%

**Q.** What about the “Tumor Burden” value [3] of the same molecule?
**A.** 7.34 g/rat

**Q.** What about the “Tumor Weight mean” value [3] of the same molecule?
**A.** 1.5 g

**Q.** And the “Tumor Weight median” value [3]?
**A.** 0.5 g

**Q.** And the “Number of Tumors” value ([3]; FA/AF excluded)?
**A.** 49

**Q.** What about the “Proliferating tumor cells by Ki-67, % cells positive” value [4] of the same molecule?
**A.** 25.7 ± 5.8%

**Q.** And the “Apoptosis, % cells positive” value (rat tumors)?
**A.** 1.28 ± 0.51%

**Q.** And the “number of cells expressing ER in tumors (in words)” value (estrogen receptor (ER))?
**A.** increased number of cells expressing ER

**Q.** What about the “PR expression in tumors (in words)” value [5] of the same molecule?
**A.** tended to raise PR expression

**Q.** What about the “Serum Progesterone, Before TX (mean)” value ([6]; 10 mg/kg group, before treatment) of the same molecule?
**A.** 51 ng/mL

**Q.** And the “Serum Progesterone, During TX (mean)” value ([6]; 10 mg/kg, after 21 days of treatment)?
**A.** 55 ng/mL

**Q.** What about the “Serum Progesterone, After TX (mean)” value ([6]; 10 mg/kg, at sacrifice 2-4 days after the last s.c. injection) of the same molecule?
**A.** 54 ng/mL

**Q.** What about the “effect on serum corticosterone (in words)” value [7] of the same molecule?
**A.** levels of corticosterone were lowered
